According to patent publication US20120077836A1, “METHODS OF ADMINISTERING (4AR,10AR)-1-N-PROPYL-1,2,3,4,4A,5,10,10A-OCTAHYDROBENZO [G] QUINOLINE-6,7-DIOL AND RELATED COMPOUNDS ACROSS THE ORAL MUCOSA, THE NASAL MUCOSA OR THE SKIN AND PHARMACEUTICAL COMPOSITIONS THEREOF” (priority 2009, published 2012):
Where a name gives a salt, the structure may show the parent alone. Read-outs that look alike come from different tables or passages of the source.

Assays:
MPTP/AMPT mouse model = test: Superiority model, hypomotility in the MPTP/AMPT mouse model; assay type: in vivo; details: for activity count (0.5-1.5 h): AMPT 250 mg/kg SC
Method: MPTP (1-methyl-4-phenyl-1,2,3,6-tetrahydropyridine) is a neurotoxin that causes permanent symptoms of Parkinson's disease by killing certain neurons in the substantia nigra of the brain. It is used to study the disease in monkeys and mice. […] Various compounds (all dosed subcutaneously) were tested for their ability to reverse the motility deficits produced in this model.

MPTP treated marmosets = test: Anti-parkinsonian effects in MPTP-treated common marmosets; assay type: in vivo, common marmoset; set-up: disability score (120 min) / disability score (180 min) / disability score (240 min) / disability score (300 min) / disability score (360 min) / disability score (420 min) / disability score (60 min): scale not given here
Method: The experiments were conducted using 6 MPTP treated marmosets (2.0 mg/kg daily for up to 5 consecutive days dissolved in sterile 0.9% saline solution). All the animals had previously been treated with L-DOPA (12.5 mg/kg p.o., plus carbidopa 12.5 mg/kg p.o.) administered daily for up to 30 days in order to induce dyskinesia. […] Domperidone was administered 60 min before any of the test compounds. Domperidone is an antidopaminergic drug that suppresses nausea and vomiting. Locomotor activity was assessed using test cages that are comprised of 8 photo-electric switches comprised of 8 infra-red beams which are strategically placed in the cage and interruption of a beam is recorded as one count. […] The assessment of motor disability was performed by a trained observer blinded to the treatment.
The dose chosen for this challenge is at the top of the dose response curve for this drug.

[1] = tested on: rats with unilateral 6-OHDA lesions; test: Rotation response in 6-OHDA rats after buccal delivery; assay type: in vivo, rat
[2] = tested on: unilaterally lesioned 6-OHDA rats; assay type: in vivo, rat
Method: Animals were generated as described under example 7. Four groups of animals were dosed with various doses of compound 10 (group 1, 1 microg/kg; group 2, 10 microg/kg; group 3, 25 microg/kg; group 4, 50 microg/kg). In all cases, compound 10 was administered in one of the nostrils in a volume of 20 microL of a solution of the appropriate concentration in 20% ethanol in 0.7% aqueous sodium chloride containing 0.02% ascorbic acid. The drug solution was applied to one of the nostrils and the nose was gently massaged to ensure distribution of the administered solution over the nasal mucosa. The degree of rotation behaviour of the animals was recorded over the next 3 hours.

[3] = tested on: rats with unilateral 6-OHDA lesions; test: Dyskinesia model with naive 6-OHDA rats (AIMS)

SMILES: CCCN1CCC[C@@H]2Cc3c(ccc(O)c3O)C[C@H]21 [compound 10, (4aR,10aR)-1-n-Propyl-1,2,3,4,4a,5,10,10a-octahydro-benzo[g]quinoline-6,7-diol hydrobromide]
- reversal of motility deficits (MPTP/AMPT mouse model; MPTP/AMPT mice, all dosed subcutaneously): restored locomotion in the mice in a dose-dependent manner
- activity count (0.5-1.5 h) (MPTP/AMPT mouse model; Table 4c, 0.003 mg/kg SC, controls: vehicle 405, AMPT/vehicle 12): 8
- activity count (0.5-1.5 h) (MPTP/AMPT mouse model; Table 4c, 0.01 mg/kg SC): 228
- activity count (0.5-1.5 h) (MPTP/AMPT mouse model; Table 4c, 0.03 mg/kg SC): 440
- activity count (0.5-1.5 h) (MPTP/AMPT mouse model; Table 4e direct comparison, apomorphine 1 mg/kg SC, pramipexole 1 mg/kg SC, compound 10 0.030 mg/kg SC, controls: vehicle 509, AMPT/vehicle 2): 690
- disability score (60 min) (MPTP treated marmosets; 0.001 mg/kg SC): 14.3
- disability score (120 min) (MPTP treated marmosets; 0.001 mg/kg SC): 2.3
- disability score (180 min) (MPTP treated marmosets; 0.001 mg/kg SC): 2.5
- disability score (240 min) (MPTP treated marmosets; 0.001 mg/kg SC): 3.0
- disability score (300 min) (MPTP treated marmosets; 0.001 mg/kg SC): 2.5
- disability score (360 min) (MPTP treated marmosets; 0.001 mg/kg SC): 6.5
- disability score (420 min) (MPTP treated marmosets; 0.001 mg/kg SC): 8.5
- disability score (60 min) (MPTP treated marmosets; 0.01 mg/kg SC): 10.0
- disability score (120 min) (MPTP treated marmosets; 0.01 mg/kg SC): 2.2
- disability score (180 min) (MPTP treated marmosets; 0.01 mg/kg SC): 2.0
- disability score (240 min) (MPTP treated marmosets; 0.01 mg/kg SC): 2.2
- disability score (300 min) (MPTP treated marmosets; 0.01 mg/kg SC): 2.7
- disability score (360 min) (MPTP treated marmosets; 0.01 mg/kg SC): 2.3
- disability score (420 min) (MPTP treated marmosets; 0.01 mg/kg SC): 2.7
- effect on locomotor activity and motor disability (MPTP treated marmosets; L-DOPA 12.5 mg/kg p.o., compound 10 0.001 or 0.01 mg/kg SC): dose-related increase in locomotor activity and reversal of motor disability
- mean number of rotations over 3 h ([1]; 0.1 mg/kg buccally): 1203
- induction of rotation ([1]; apomorphine subcutaneous, compound 10 buccal): induced circling behavior
- mean number of rotations (0-3 h) ([2]; group 1, intranasal 1 microg/kg): 401
- mean number of rotations (0-3 h) ([2]; group 2, intranasal 10 microg/kg): 691
- mean number of rotations (0-3 h) ([2]; group 3, intranasal 25 microg/kg): 1286
- mean number of rotations (0-3 h) ([2]; group 4, intranasal 50 microg/kg): 2122
- mean AIM score (day 19) ([3]; group 1: compound 10 0.0013 mg/kg SC days 1-14, then compound 10 0.0013 mg/kg SC days 15-19): 25
- mean AIM score (day 19) ([3]; group 2: L-DOPA/Benserazide 6/15 mg/kg SC days 1-14, then compound 10 0.0013 mg/kg SC days 15-19): 18
- mean AIM score (day 19) ([3]; group 3: apomorphine 1 mg/kg SC days 1-14, then compound 10 0.0013 mg/kg SC days 15-19): 39
- dyskinesia score (AIMS) ([3]; once daily SC, scored days 1-12): about 30
